Results on 34 molecules are retold here after ChEMBL document CHEMBL6134860, “Discovery and optimization of a novel carboxamide scaffold with selective antimalarial activity” (Eur J Med Chem, 2025).

Data set [1] relates to Plasmodium falciparum. Nature of the data set: microbe, parasite or virus in culture. The format is functional, organism-based. The following applies: W2, 72 h.
A short description of data set [2]: Cytotoxicity against human HepG2 cells measured after 72 hrs by hoechst 33342 staining based imaging assay. The class given is toxicity, cell-based.
Data set [3] deals with Plasmodium falciparum. Nature of the data set: microbe, parasite or virus in culture. The format is functional, organism-based. The conditions noted are these: C2B, 72 h.
Data set [4] concerns Plasmodium falciparum. The data set can be described thus: microbe, parasite or virus in culture. The format is functional, organism-based. The conditions noted are these: C235, 72 h.
Data set [5] relates to Plasmodium falciparum. Nature of the data set: microbe, parasite or virus in culture. The format is functional, organism-based. The following applies: D6, 72 h.
Data set [6] concerns Plasmodium falciparum. The data set can be described thus: microbe, parasite or virus in culture. The following applies: 3D7, 72 h. The format is functional, organism-based.

With `O=C1c2sc(-c3ccc(Cl)cc3)nc2CN1c1ccc(Cl)cc1`, the EC50 in data set [1] (read-out: EC50) and in data set [1] (read-out: pEC50 (converted)) was over 10 µM throughout. The CC50 at 72 h in data set [2] (read-out: CC50) and in data set [2] (read-out: pCC50 (converted)) was over 10 µM in each case.
Regarding `Cc1ccc(N(C)C(=O)c2ncn(-c3ccc(Cl)cc3)n2)cc1C`, the EC50 in data set [1] (read-out: pEC50 (converted)) was 2.34 µM. Besides, the CC50 at 72 h in data set [2] (read-out: CC50) and in data set [2] (read-out: pCC50 (converted)) was over 10 µM in each case.
For `CN(C(=O)c1ncn(-c2ccc(Cl)cc2)n1)c1ccc([N+](=O)[O-])cc1`, the EC50 in data set [1] (read-out: pEC50 (converted)) is 2.29 µM. Moreover, the CC50 at 72 h in data set [2] (read-out: CC50) and in data set [2] (read-out: pCC50 (converted)) was over 10 µM in each case.
For `O=C(c1ccc(Cl)cc1)c1ncc(-c2ccc(Cl)cc2)o1`, the EC50 is over 10000 µM in data set [1] (read-out: EC50) and over 10 µM in data set [1] (read-out: pEC50 (converted)). For the same molecule, the CC50 at 72 h in data set [2] (read-out: CC50) and in data set [2] (read-out: pCC50 (converted)) was over 10 µM in each case.
For `Cc1ccc(N(C)C(=O)c2ncn(-c3ccc(C(C)C)cc3)n2)cc1`, the EC50 in data set [1] (read-out: pEC50 (converted)) is 0.741 µM. The CC50 at 72 h in data set [2] (read-out: CC50) and in data set [2] (read-out: pCC50 (converted)) was over 10 µM in each case.
For the molecule `COc1ccc(N(C)C(=O)c2ncn(-c3ccc(C(C)C)cc3)n2)cc1`, the EC50 in data set [1] (read-out: pEC50 (converted)) was 1.62 µM. The CC50 at 72 h in data set [2] (read-out: CC50) and in data set [2] (read-out: pCC50 (converted)) was over 10 µM in each case.
With `Cc1ccc(-c2ccnc(C(=O)N(C)c3ccc(Cl)cc3)c2)cc1`, in data set [1] (read-out: pEC50 (converted)), the EC50 was 0.49 µM. Moreover, the CC50 at 72 h in data set [2] (read-out: CC50) and in data set [2] (read-out: pCC50 (converted)) was over 10 µM each time.
Turning to `Cc1ccc(-c2cnc(C(=O)N(C)c3ccc(Cl)cc3)o2)cc1`, the EC50 in data set [1] (read-out: pEC50 (converted)) is 0.676 µM. Moreover, the CC50 at 72 h in data set [2] (read-out: CC50) and in data set [2] (read-out: pCC50 (converted)) was over 10 µM throughout.
For `CN(C(=O)c1ncn(-c2ccc(Cl)cc2)n1)c1ccc(F)cc1`, in data set [1] (read-out: pEC50 (converted)), the EC50 was 1.78 µM. Also, the CC50 at 72 h in data set [2] (read-out: CC50) and in data set [2] (read-out: pCC50 (converted)) was over 10 µM throughout.
On to `CN(C(=O)c1ncn(-c2ccc(Cl)cc2)n1)c1ccc(Cl)cc1`, for which the EC50 in data set [1] (read-out: pEC50 (converted)) is 0.525 µM. The CC50 at 72 h in data set [2] (read-out: CC50) and in data set [2] (read-out: pCC50 (converted)) was over 10 µM throughout.
As for `CN(C(=O)c1cnc(-c2ccc(Cl)cc2)s1)c1ccc(Cl)cc1`, the EC50 in data set [1] (read-out: EC50) and in data set [1] (read-out: pEC50 (converted)) was over 10 µM in each case. Besides, the CC50 at 72 h in data set [2] (read-out: CC50) and in data set [2] (read-out: pCC50 (converted)) was over 10 µM each time.
In the case of `O=C(c1ccc(Cl)cc1)c1cc(-c2ccc(Cl)cc2)ccn1`, the EC50 was over 10000 µM in data set [1] (read-out: EC50) and over 10 µM in data set [1] (read-out: pEC50 (converted)). The CC50 at 72 h in data set [2] (read-out: CC50) and in data set [2] (read-out: pCC50 (converted)) was over 10 µM each time.
As to `CC(C)c1ccc(-n2cnc(C(=O)N(C)c3ccc(Cl)cc3)n2)cc1`, in data set [1] (read-out: pEC50 (converted)), the EC50 is 0.851 µM. The CC50 at 72 h in data set [2] (read-out: CC50) and in data set [2] (read-out: pCC50 (converted)) was over 10 µM throughout.
`CCc1ccc(-n2cnc(C(=O)N(C)c3ccc(OC)cc3)n2)cc1`: the EC50 in data set [1] (read-out: pEC50 (converted)) is 0.933 µM. For the same molecule, the CC50 at 72 h in data set [2] (read-out: CC50) and in data set [2] (read-out: pCC50 (converted)) was over 10 µM throughout.
Consider `Cc1ccc(-c2nc(C)c(C(=O)N(C)c3ccc(Cl)cc3)s2)cc1`, for which the EC50 in data set [1] (read-out: EC50) was over 4.78 µM; in data set [1] (read-out: pEC50 (converted)), over 4.79 µM. Further, the CC50 at 72 h in data set [2] (read-out: CC50) and in data set [2] (read-out: pCC50 (converted)) was over 10 µM throughout.
For `O=C(Nc1ccc(-c2cc3ccccc3oc2=O)cc1)c1cccc2ccccc12`, the EC50 was over 4.05 µM in data set [1] (read-out: EC50) and over 4.07 µM in data set [1] (read-out: pEC50 (converted)). Besides, the figures for the CC50 at 72 h in data set [2] (read-out: CC50) and in data set [2] (read-out: pCC50 (converted)) were 1.16 µM and 1.15 µM, respectively.
`CCc1ccc(-n2cnc(C(=O)N(C)c3ccc(C)c(C)c3)n2)cc1`: the EC50 in data set [1] (read-out: pEC50 (converted)) was 2 µM. In addition, the CC50 at 72 h in data set [2] (read-out: CC50) and in data set [2] (read-out: pCC50 (converted)) was over 10 µM throughout.
With `COc1ccc(N(C)C(=O)c2ncn(-c3ccc(Cl)cc3)n2)cc1`, the EC50 in data set [1] (read-out: pEC50 (converted)) is 1.91 µM. For the same molecule, the CC50 at 72 h in data set [2] (read-out: CC50) and in data set [2] (read-out: pCC50 (converted)) was over 10 µM each time.
As to `Cc1nc(-c2ccc(Cl)cc2)sc1C(=O)N(C)c1ccc(Cl)cc1`, the EC50 in data set [1] (read-out: EC50) and in data set [1] (read-out: pEC50 (converted)) was over 10 µM in each case. The CC50 at 72 h in data set [2] (read-out: CC50) and in data set [2] (read-out: pCC50 (converted)) was over 10 µM throughout.
Take `O=C(Nc1ncn(-c2ccc(Cl)cc2)n1)c1ccc(Cl)cc1`: in data set [1] (read-out: pEC50 (converted)), the EC50 was 3.09 µM. The CC50 at 72 h in data set [2] (read-out: CC50) and in data set [2] (read-out: pCC50 (converted)) was over 10 µM throughout.
`Cc1ccc(C(=O)N(C)c2ncn(-c3ccc(Cl)cc3)n2)cc1`: the EC50 in data set [1] (read-out: pEC50 (converted)) was 4.27 µM. The CC50 at 72 h in data set [2] (read-out: CC50) and in data set [2] (read-out: pCC50 (converted)) was over 10 µM in each case.
Turning to `Cc1ccc(C(=O)Nc2ncn(-c3ccc(C)cc3)n2)cc1`, in data set [1] (read-out: pEC50 (converted)), the EC50 is 2.51 µM. Moreover, the CC50 at 72 h in data set [2] (read-out: CC50) and in data set [2] (read-out: pCC50 (converted)) was over 10 µM throughout.
As to `CCc1ccc(-n2cnc(C(=O)N(C)c3ccc(Cl)cc3)n2)cc1`, the EC50 in data set [1] (read-out: pEC50 (converted)) was 0.617 µM. Also, the CC50 at 72 h in data set [2] (read-out: CC50) and in data set [2] (read-out: pCC50 (converted)) was over 10 µM throughout.
Regarding `CC(=O)c1ccc(N(C)C(=O)c2ncn(-c3ccc(Cl)cc3)n2)cc1`, in data set [1] (read-out: pEC50 (converted)), the EC50 was 2.4 µM. Further, the CC50 at 72 h in data set [2] (read-out: CC50) and in data set [2] (read-out: pCC50 (converted)) was over 10 µM each time.
As to `CCc1ccc(-n2cnc(C(=O)N(C)c3ccc(C)cc3)n2)cc1`, the EC50 in data set [1] (read-out: pEC50 (converted)) was 0.575 µM. Moreover, the CC50 at 72 h in data set [2] (read-out: CC50) and in data set [2] (read-out: pCC50 (converted)) was over 10 µM throughout.
`COc1ccc(-n2cnc(C(=O)N(C)c3ccc(C)cc3)n2)cc1`: in data set [1] (read-out: pEC50 (converted)), the EC50 was 5.75 µM. Also, the CC50 at 72 h in data set [2] (read-out: CC50) and in data set [2] (read-out: pCC50 (converted)) was over 10 µM each time.
In the case of `CN(C(=O)c1ncn(-c2ccc(Cl)cc2)n1)c1ccc(C(F)(F)F)cc1`, the EC50 in data set [1] (read-out: pEC50 (converted)) was 3.8 µM. The CC50 at 72 h is over 6.93 µM in data set [2] (read-out: CC50) and over 6.92 µM in data set [2] (read-out: pCC50 (converted)).
The like results for `Cc1ccc(-c2ncc(C(=O)N(C)c3ccc(Cl)cc3)[nH]2)cc1` were, in that order, 3.39 µM, over 10 µM and over 10 µM.
For the molecule `CN(C(=O)c1ncc(-c2ccc(Cl)cc2)o1)c1ccc(Cl)cc1`, the EC50 was 0.17 µM in data set [1] (read-out: EC50); 0.17 µM in data set [1] (read-out: pEC50 (converted)); 0.168 µM in data set [3] (read-out: EC50); 0.166 µM in data set [3] (read-out: pEC50 (converted)); 0.281 µM in data set [4] (read-out: EC50); 0.282 µM in data set [4] (read-out: pEC50 (converted)). The EC50 is 0.84 µM in data set [5] (read-out: EC50), 0.832 µM in data set [5] (read-out: pEC50 (converted)), 0.502 µM in data set [6] (read-out: EC50) and 0.501 µM in data set [6] (read-out: pEC50 (converted)).
For `[2H]C([2H])([2H])N(C(=O)c1cc(-c2ccc(Cl)cc2)ccn1)c1ccc(Cl)cc1`, the EC50 in data set [1] (read-out: EC50) was 198 µM; in data set [1] (read-out: pEC50 (converted)), 0.2 µM; in data set [3] (read-out: EC50), 0.104 µM; in data set [3] (read-out: pEC50 (converted)), 0.105 µM; in data set [4] (read-out: EC50), 0.199 µM; in data set [4] (read-out: pEC50 (converted)), 0.2 µM. Moreover, the EC50 is 0.608 µM in data set [5] (read-out: EC50), 0.603 µM in data set [5] (read-out: pEC50 (converted)), 0.588 µM in data set [6] (read-out: EC50) and 0.589 µM in data set [6] (read-out: pEC50 (converted)).
As for `CN(C(=O)c1ncn(-c2ccc(Cl)cc2)n1)c1ccc(Cl)c(Cl)c1`, the EC50 in data set [1] (read-out: pEC50 (converted)) is 0.933 µM. Also, the CC50 at 72 h in data set [2] (read-out: CC50) and in data set [2] (read-out: pCC50 (converted)) was over 10 µM throughout.
Take `C[C@H]1[C@@H](O)O[C@@H]2O[C@@]3(C)CC[C@H]4[C@H](C)CC[C@@H]1[C@@]24OO3` [ARTENIMOL]: the EC50 in data set [1] (read-out: pEC50 (converted)) is 0.000417 µM; in data set [3] (read-out: pEC50 (converted)), 0.000178 µM; in data set [4] (read-out: pEC50 (converted)) it was 0.00295 µM; in data set [5] (read-out: pEC50 (converted)), 0.00155 µM; in data set [6] (read-out: pEC50 (converted)), 0.000661 µM.
As for `O=C1C(O)=C([C@H]2CC[C@H](c3ccc(Cl)cc3)CC2)C(=O)c2ccccc21` [ATOVAQUONE], the EC50 was 0.000759 µM in data set [1] (read-out: pEC50 (converted)); under 1 µM in data set [3] (read-out: pEC50 (converted)); 0.00195 µM in data set [4] (read-out: pEC50 (converted)); 0.000603 µM in data set [5] (read-out: pEC50 (converted)); 0.000851 µM in data set [6] (read-out: pEC50 (converted)).
Regarding `COc1ccc(C[C@H](N)C(=O)N[C@H]2[C@@H](O)[C@H](n3cnc4c(N(C)C)ncnc43)O[C@@H]2CO)cc1` [PUROMYCIN], the EC50 in data set [1] (read-out: pEC50 (converted)) was 0.0631 µM. For the same molecule, the CC50 at 72 h in data set [2] (read-out: pCC50 (converted)) was 0.646 µM.
